{"source": "paper PMC3934385", "about": "“Componential Profile and Amylase Inhibiting Activity of Phenolic Compounds from Calendula officinalis L. Leaves” (The Scientific World Journal, 2014)"}
{"biological_target": "T1, amylase from Aspergillus niger", "T1 construct": "gene aamA", "test": "starch hydrolysis, glucose oxidase/peroxidase coupled, A510 microplate", "format": "biochemical", "conditions": "2% starch, phosphate pH 5.0, preincubation 20 min 45°C, then 30 min 50°C", "source_text": "starch hydrolysis, glucose oxidase/peroxidase coupled, A510 microplate on amylase from Aspergillus niger", "units": {"IC50": "µg/mL"}}
{"smiles": "O=C(O[C@@H]1O[C@H](CO)[C@@H](O)[C@H](O)[C@H]1O)c1ccc(O)cc1", "note": "[compound 1, 1′-O-p-hydroxybenzoyl-β-D-glucopyranose]", "IC50": "> 100"}
{"smiles": "O=c1c(O[C@@H]2O[C@H](CO)[C@@H](O)[C@H](O)[C@H]2O)c(-c2ccc(O)c(O)c2)oc2cc(O)cc(O)c12", "note": "[compound 18, isoquercitrin]", "IC50": 15.45}
{"smiles": "O=C(OC[C@H]1OC(O)[C@H](O)[C@@H](O)[C@@H]1O)c1ccc(O)cc1", "note": "(stereo partly drawn) [compound 2, 6′-O-p-hydroxybenzoyl-β-D-glucopyranose]", "IC50": "> 100"}
{"smiles": "O=c1c(O)c(-c2ccc(O)c(O)c2)oc2cc(O)cc(O)c12", "note": "[compound 17, quercetin]", "IC50": 1.79}
{"smiles": "O=C(/C=C/c1ccc(O)c(O)c1)O[C@@H]1C[C@](OC(=O)/C=C/c2ccc(O)c(O)c2)(C(=O)O)C[C@@H](O)[C@H]1O", "note": "[compound 10, 1,5-di-O-caffeoylquinic acid]", "IC50": 37.15}
{"smiles": "COc1cc(-c2oc3cc(O)cc(O)c3c(=O)c2O[C@@H]2O[C@H](CO[C@@H]3O[C@@H](C)[C@H](O)[C@@H](O)[C@H]3O)[C@@H](O)[C@H](O)[C@H]2O[C@@H]2O[C@@H](C)[C@H](O)[C@@H](O)[C@H]2O)ccc1O", "note": "[compound 25, thyphaneoside]", "IC50": "> 100"}
{"smiles": "O=C(O[C@@H]1O[C@H](CO)[C@@H](O)[C@H](O)[C@H]1O)c1ccc(O)c(O)c1", "note": "[compound 3, 1′-O-protocatechuoyl-β-D-glucopyranose]", "IC50": 62.46}
{"smiles": "COc1cc(-c2oc3cc(O)cc(O)c3c(=O)c2O[C@@H]2O[C@H](CO[C@@H]3O[C@@H](C)[C@H](O)[C@@H](O)[C@H]3O)[C@@H](O)[C@H](O)[C@H]2O)ccc1O", "note": "[compound 24, narcissin]", "IC50": "> 100"}
{"smiles": "COc1cc(-c2oc3cc(O)cc(O)c3c(=O)c2O[C@@H]2O[C@H](CO)[C@@H](O)[C@H](O)[C@H]2O)ccc1O", "note": "[compound 22, isorhamnetin-3-O-β-D-glucopyranoside]", "IC50": 23.41}
{"smiles": "CC(=O)OC[C@H]1O[C@@H](Oc2c(-c3ccc(O)c(O)c3)oc3cc(O)cc(O)c3c2=O)[C@H](O)[C@@H](O)[C@@H]1O", "note": "[compound 19, quercetin-3-O-(6′′-acetyl)-β-D-glucopyranoside]", "IC50": 32.70}
{"smiles": "O=c1ccc2ccc(O)cc2o1", "note": "[compound 12, umbelliferone]", "IC50": "> 100"}
{"smiles": "COc1cc2ccc(=O)oc2cc1O", "note": "[compound 16, scopoletin]", "IC50 (μg mL^-1)": "~ 100 μg mL^−1"}
{"smiles": "C[C@H]1O[C@H](O[C@H]2[C@H](O)[C@@H](O)[C@@H](O[C@H]3[C@H](O)[C@@H](O)C(O)O[C@@H]3CO)O[C@@H]2CO)[C@H](O)[C@@H](O)[C@@H]1N[C@H]1C=C(CO)[C@@H](O)[C@H](O)[C@H]1O", "note": "(stereo partly shown) [Acarbose, reference compound]", "IC50": "9.54 ± 0.32"}
{"smiles": "O=c1ccc2cc(O[C@@H]3O[C@H](CO)[C@@H](O)[C@H](O)[C@H]3O)c(O)cc2o1", "note": "[compound 14, aesculin]", "IC50": "> 100"}
{"smiles": "COc1cc(C(=O)O[C@@H]2O[C@H](CO)[C@@H](O)[C@H](O)[C@H]2O)ccc1O", "note": "[compound 5, 1′-O-vanilloyl-β-D-glucopyranose]", "IC50": 73.69}
{"smiles": "COc1cc(-c2oc3cc(O)cc(O)c3c(=O)c2O[C@@H]2O[C@H](COC(C)=O)[C@@H](O)[C@H](O)[C@H]2O)ccc1O", "note": "[compound 23, isorhamnetin-3-O-(6′′-acetyl)-β-D-glucopyranoside]", "IC50 (μg mL^-1)": "~ 100 μg mL^−1"}
{"smiles": "C[C@@H]1O[C@@H](OC[C@H]2O[C@@H](Oc3c(-c4ccc(O)c(O)c4)oc4cc(O)cc(O)c4c3=O)[C@H](O)[C@@H](O)[C@@H]2O)[C@H](O)[C@H](O)[C@H]1O", "note": "[compound 20, rutin]", "IC50": 89.85}
{"smiles": "O=C(O)/C=C/c1ccc(O)c(O)c1", "note": "[compound 7, caffeic acid]", "IC50": 2.53}
{"smiles": "O=C(/C=C/c1ccc(O)c(O)c1)O[C@@H]1[C@H](O)C[C@@](O)(C(=O)O)C[C@H]1OC(=O)/C=C/c1ccc(O)c(O)c1", "note": "[compound 11, 4,5-di-O-caffeoylquinic acid]", "IC50": 26.65}
{"smiles": "COc1cc(-c2oc3cc(O)cc(O)c3c(=O)c2O)ccc1O", "note": "[compound 21, isorhamnetin]", "IC50": 2.64}
{"smiles": "O=c1ccc2cc(O)c(O[C@@H]3O[C@H](CO)[C@@H](O)[C@H](O)[C@H]3O)cc2o1", "note": "[compound 15, cichoriin]", "IC50": "> 100"}
{"smiles": "O=C(/C=C/c1ccc(O)c(O)c1)O[C@@H]1C[C@](O)(C(=O)O)C[C@@H](OC(=O)/C=C/c2ccc(O)c(O)c2)[C@H]1O", "note": "[compound 9, 3,5-di-O-caffeoylquinic acid]", "IC50": 25.63}
{"smiles": "O=c1ccc2cc(O)c(O)cc2o1", "note": "[compound 13, aesculetin]", "IC50": 1.02}
{"smiles": "O=C(OC[C@H]1OC(O)[C@H](O)[C@@H](O)[C@@H]1O)c1ccc(O)c(O)c1", "note": "(stereo partly drawn) [compound 4, 6′-O-protocatechuoyl-β-D-glucopyranose]", "IC50": 66.52}
{"smiles": "COc1cc(C(=O)OC[C@H]2OC(O)[C@H](O)[C@@H](O)[C@@H]2O)ccc1O", "note": "(mixture of isomers) [compound 6, 6′-O-vanilloyl-β-D-glucopyranose]", "IC50": 79.18}
